In brackets after ≈: the same amount, converted by molar mass.
Tests used:
Type in all cases: functional
Enterococcus faecalis = test: Minimum inhibitory concentration (MIC) against Enterococcus faecalis ATCC 29212
Escherichia coli [1] = test: Minimum inhibitory concentration (MIC) against Escherichia coli OC 2605
Escherichia coli [2] = test: Minimum inhibitory concentration (MIC) against Escherichia coli OC 2530 (HS)
Staphylococcus aureus [3] = test: Minimum inhibitory concentration (MIC) against Staphylococcus aureus OC 4172 in the absence of mouse serum
Staphylococcus aureus [4] = test: Tested for the dose to protect the mice from infection with Staphylococcus aureus OC 4172, by subcutaneous administration; details: sc
Staphylococcus aureus [5] = test: Minimum inhibitory concentration (MIC) against Staphylococcus aureus OC 4172 in the presence of 50% mouse serum
Staphylococcus aureus [6] = test: Minimum inhibitory concentration (MIC) against methicillin-resistant Staphylococcus aureus (MRSA) OC2878
Enterococcus faecium = test: Minimum inhibitory concentration (MIC) against Enterococcus faecium OC 3312 (VRE)
Mus musculus = test: Tested for the dose to protect the mice from infection with Staphylococcus aureus OC 4172, by oral administration

Compound | MIC (Enterococcus faecalis) | MIC (Escherichia coli [1]) | MIC (Escherichia coli [2]) | MIC (Staphylococcus aureus [3]) | ED50 (Staphylococcus aureus [4]) | MIC (Staphylococcus aureus [5]) | MIC (Staphylococcus aureus [6]) | MIC (Enterococcus faecium) | ED50 (Mus musculus)
CC(=O)NC[C@H]1CN(c2ccc(C3=NOC(C(N)=O)C3)c(F)c2)C(=O)O1 (stereo partly specified) | 4 µg/mL (≈ 11 µM) | > 64 µg/mL | 32 µg/mL (≈ 87.8 µM) | 2 µg/mL (≈ 5.49 µM) | 11.8 mg/kg/day | 1 µg/mL | 2 µg/mL (≈ 5.49 µM) | 4 µg/mL (≈ 11 µM) | 40 mg/kg/day
COC(=O)c1cc(-c2ccc(N3C[C@H](CNC(C)=O)OC3=O)cc2F)no1 | 16 µg/mL (≈ 42.4 µM) | > 128 µg/mL | 64 µg/mL (≈ 170 µM) | 8 µg/mL (≈ 21.2 µM) |  | > 128 µg/mL | 4 µg/mL (≈ 10.6 µM) | 8 µg/mL (≈ 21.2 µM) | 
CC(=O)NC[C@H]1CN(c2ccc(C3=NOC(CN(C)C)C3)c(F)c2)C(=O)O1 (stereo partly specified) | 8 µg/mL (≈ 21.1 µM) | 128 µg/mL (≈ 338 µM) | 64 µg/mL (≈ 169 µM) | 8 µg/mL (≈ 21.1 µM) |  | 2 µg/mL | 8 µg/mL (≈ 21.1 µM) | 8 µg/mL (≈ 21.1 µM) | 
COCCNC(=O)C1CC(c2ccc(N3C[C@H](CNC(C)=O)OC3=O)cc2F)=NO1 (stereo partly specified) | 16 µg/mL (≈ 37.9 µM) | > 64 µg/mL | 64 µg/mL (≈ 152 µM) | 8 µg/mL (≈ 18.9 µM) |  | 8 µg/mL | 16 µg/mL (≈ 37.9 µM) | 16 µg/mL (≈ 37.9 µM) | 
CC(=O)NC[C@H]1CN(c2ccc(C3=NOC(c4ccncc4)C3)c(F)c2)C(=O)O1 (stereo partly specified) | 4 µg/mL (≈ 10 µM) | > 64 µg/mL | 32 µg/mL (≈ 80.3 µM) | 4 µg/mL (≈ 10 µM) |  | 4 µg/mL | 1 µg/mL (≈ 2.51 µM) | 4 µg/mL (≈ 10 µM) | 
CC(=O)NC[C@H]1CN(c2ccc(C3=NOC(C(=O)N4CCOCC4)C3)c(F)c2)C(=O)O1 (stereo partly specified) | 8 µg/mL (≈ 18.4 µM) | > 128 µg/mL | 32 µg/mL (≈ 73.7 µM) | 8 µg/mL (≈ 18.4 µM) |  | 8 µg/mL | 8 µg/mL (≈ 18.4 µM) | 8 µg/mL (≈ 18.4 µM) | 
CC(=O)NC[C@H]1CN(c2ccc(C3=NOC(C#N)C3)c(F)c2)C(=O)O1 (stereo partly specified) | 2 µg/mL (≈ 5.78 µM) | 128 µg/mL (≈ 370 µM) | 16 µg/mL (≈ 46.2 µM) | 2 µg/mL (≈ 5.78 µM) | 22.4 mg/kg/day | 1 µg/mL | 1 µg/mL (≈ 2.89 µM) | 2 µg/mL (≈ 5.78 µM) | 22.1 mg/kg/day
CC(=O)NC[C@H]1CN(c2ccc(C3=NOC(c4ccccn4)C3)c(F)c2)C(=O)O1 (stereo partly specified) | 2 µg/mL (≈ 5.02 µM) | > 64 µg/mL | 8 µg/mL (≈ 20.1 µM) | 2 µg/mL (≈ 5.02 µM) | 22.8 mg/kg/day | 4 µg/mL | 2 µg/mL (≈ 5.02 µM) | 2 µg/mL (≈ 5.02 µM) | 31.6 mg/kg/day
CC(=O)NC[C@H]1CN(c2ccc(C3=NOC(CN4CCN(C(C)=O)CC4)C3)c(F)c2)C(=O)O1 (stereo partly specified) | 8 µg/mL (≈ 17.3 µM) | > 32 µg/mL | 16 µg/mL (≈ 34.7 µM) | 8 µg/mL (≈ 17.3 µM) |  | 8 µg/mL | 8 µg/mL (≈ 17.3 µM) | 16 µg/mL (≈ 34.7 µM) | 
CNC(=O)C1CC(c2ccc(N3C[C@H](CNC(C)=O)OC3=O)cc2F)=NO1 (stereo partly specified) | 4 µg/mL (≈ 10.6 µM) | > 128 µg/mL | 32 µg/mL (≈ 84.6 µM) | 4 µg/mL (≈ 10.6 µM) |  | 4 µg/mL | 4 µg/mL (≈ 10.6 µM) | 4 µg/mL (≈ 10.6 µM) | 
CC(=O)NC[C@H]1CN(c2ccc(-c3cc(-c4ccccn4)on3)c(F)c2)C(=O)O1 | 4 µg/mL (≈ 10.1 µM) | > 128 µg/mL | 64 µg/mL (≈ 161 µM) | 4 µg/mL (≈ 10.1 µM) | > 40 mg/kg/day | 8 µg/mL | 2 µg/mL (≈ 5.05 µM) | 4 µg/mL (≈ 10.1 µM) | 
CC(=O)NCC1CC(c2ccc(N3C[C@H](CNC(C)=O)OC3=O)cc2F)=NO1 (stereo partly specified) | 16 µg/mL (≈ 40.8 µM) | > 64 µg/mL | 64 µg/mL (≈ 163 µM) | 8 µg/mL (≈ 20.4 µM) |  | 8 µg/mL | 16 µg/mL (≈ 40.8 µM) | 16 µg/mL (≈ 40.8 µM) | 
CCOC(=O)C1CC(c2ccc(N3C[C@H](CNC(C)=O)OC3=O)cc2F)=NO1 (stereo partly specified) | 16 µg/mL (≈ 40.7 µM) | > 128 µg/mL | 128 µg/mL (≈ 325 µM) | 8 µg/mL (≈ 20.3 µM) |  | > 128 µg/mL | 4 µg/mL (≈ 10.2 µM) | 8 µg/mL (≈ 20.3 µM) | 
CC(=O)NC[C@H]1CN(c2ccc(C3=NOC(Cn4ccnc4)C3)c(F)c2)C(=O)O1 (stereo partly specified) | > 32 µg/mL | > 32 µg/mL | > 32 µg/mL | > 32 µg/mL |  | > 32 µg/mL |  | > 32 µg/mL | 
CC(=O)NC[C@H]1CN(c2ccc(C3=NOC(CN4CCOCC4)C3)c(F)c2)C(=O)O1 (stereo partly specified) | 16 µg/mL (≈ 38.1 µM) | 64 µg/mL (≈ 152 µM) | 32 µg/mL (≈ 76.1 µM) | 16 µg/mL (≈ 38.1 µM) |  | 16 µg/mL | 8 µg/mL (≈ 19 µM) | 32 µg/mL (≈ 76.1 µM) | 
CC(=O)NC[C@H]1CN(c2ccc(N3CCOCC3)c(F)c2)C(=O)O1 [LINEZOLID] |  | > 32 µg/mL | 16 µg/mL (≈ 47.4 µM) |  | 5.4 mg/kg/day |  |  | 4 µg/mL (≈ 11.9 µM) | 6.8 mg/kg/day
